From patent publication US12162858B2, “Quinoline derivatives as inhibitors of AXL/MER RTK and CSF1R” (QURIENT CO., LTD., priority 2018, dated 2024)

Biological target: T1, Axl (Homo sapiens, UniProt P30530)
T1 sequence (P30530 26-894): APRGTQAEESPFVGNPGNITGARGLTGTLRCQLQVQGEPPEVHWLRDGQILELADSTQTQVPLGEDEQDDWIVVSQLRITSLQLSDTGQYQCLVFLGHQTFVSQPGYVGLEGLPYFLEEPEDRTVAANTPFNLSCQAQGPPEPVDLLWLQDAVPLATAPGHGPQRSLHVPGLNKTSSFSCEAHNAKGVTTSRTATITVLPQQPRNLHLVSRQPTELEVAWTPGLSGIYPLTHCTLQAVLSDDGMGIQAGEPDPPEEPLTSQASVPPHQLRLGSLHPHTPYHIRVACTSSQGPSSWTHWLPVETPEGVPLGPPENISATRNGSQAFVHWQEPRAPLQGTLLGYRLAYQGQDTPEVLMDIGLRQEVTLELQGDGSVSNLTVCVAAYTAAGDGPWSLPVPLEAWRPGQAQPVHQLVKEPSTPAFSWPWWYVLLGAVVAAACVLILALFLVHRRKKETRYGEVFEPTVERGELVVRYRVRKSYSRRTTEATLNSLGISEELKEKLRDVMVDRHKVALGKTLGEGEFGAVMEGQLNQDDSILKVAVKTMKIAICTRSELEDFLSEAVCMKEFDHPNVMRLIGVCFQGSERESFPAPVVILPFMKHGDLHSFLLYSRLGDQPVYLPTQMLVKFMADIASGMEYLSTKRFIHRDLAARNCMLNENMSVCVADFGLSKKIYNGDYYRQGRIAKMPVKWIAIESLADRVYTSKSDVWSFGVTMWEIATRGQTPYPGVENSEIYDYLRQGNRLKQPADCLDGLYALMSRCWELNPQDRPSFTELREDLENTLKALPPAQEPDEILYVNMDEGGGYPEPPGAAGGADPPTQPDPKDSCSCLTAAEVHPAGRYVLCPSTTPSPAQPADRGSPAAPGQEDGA
Assay: Cellular Axl inhibition ELISA (p-Axl, Gas6-induced) using H1299 cells
Type: cell-based
Design: especially H1299 cell endogenously expresses Axl; endogenous in cells; host or cells: H1299
Conditions: read-out: Cellular Axl activity by H1299 Elisa (IC50)
Outline: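 H1299 cells, seeded overnight, exposed 24 h at 37 °C to 10-point 3-fold compound dilutions, then stimulated with 200 ng/ml human Gas6 (final) for 1 h. Lysates assayed for p-Axl by sandwich ELISA with HRP/TMB, absorbance 450 nm; IC50 by sigmoidal dose-response fit.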

Row | IC50 [nM] | SMILES
1 | ≥ 1000 | COc1cc2nccc(Oc3ccc(NC(=O)c4nn(CC5CCNC5)cc4OCC(F)(F)F)nc3)c2cc1OC (stereo not shown) [Compound 72]
2 | < 500 | COc1cc2nccc(Oc3ccc(NC(=O)c4nn(C[C@H](C)O)cc4OCC(F)(F)F)nc3)c2cc1OC [Compound 30]
3 | < 500 | COc1cc2nccc(Oc3ccc(NC(=O)c4nn(CC(C)O)cc4OCC(F)(F)F)c(F)c3)c2cc1OC (stereo not shown) [Compound 76]
4 | < 500 | COc1cc2nccc(Oc3ccc(NC(=O)c4nn(C5CCOC5)cc4OCC(F)(F)F)cc3F)c2cc1OC (stereo not shown) [Compound 55]
5 | < 500 | COc1cc2nccc(Oc3ccc(NC(=O)c4sc(C5CC5)cc4OCC(F)(F)F)nc3)c2cc1OC [Compound 179]
6 | < 500 | COc1cc2nccc(Oc3ccc(NC(=O)c4nn(C5COC5)cc4OCC(F)(F)F)nc3)c2cc1OC [Compound 66]
7 | < 500 | COc1cc2nccc(Oc3ccc(NC(=O)c4nn(CC(C)C)cc4OCC(F)(F)F)c(F)c3)c2cc1OC [Compound 48]
8 | < 500 | COc1cc2nccc(Oc3ccc(NC(=O)c4nn(CCC(F)(F)F)cc4OCC4CCC4)nc3)c2cc1OC [Compound 166]
9 | < 500 | COc1cc2nccc(Oc3ccc(NC(=O)c4nc(CCC(F)(F)F)oc4CCC4CCC4)nc3)c2cc1OC [Compound 176]
10 | < 500 | COc1cc2nccc(Oc3ccc(NC(=O)c4nn(C)cc4OCC(F)(F)F)nc3)c2cc1OC [Compound 33]
11 | < 500 | COc1cc2nccc(Oc3ccc(NC(=O)c4nn(CC(C)O)cc4OCC(F)F)nc3)c2cc1OC (stereo not shown) [Compound 175]
12 | < 500 | CCCn1cc(OCCF)c(C(=O)Nc2ccc(Oc3ccnc4cc(OC)c(OC)cc34)cn2)n1 [Compound 14]
13 | < 500 | COc1cc2nccc(Oc3ccc(NC(=O)c4nn(C5CCC5)cc4OCC(F)(F)F)nc3)c2cc1OC [Compound 24]
14 | < 500 | COCCn1cc(OCC(F)(F)F)c(C(=O)Nc2ccc(Oc3ccnc4cc(OC)c(OC)cc34)c(F)c2)n1 [Compound 54]
15 | < 500 | COc1cc2nccc(Oc3ccc(NC(=O)c4nn(CCC#N)cc4OCC(F)(F)F)nc3)c2cc1OC [Compound 39]
16 | < 500 | CCCn1cc(OCCC(F)(F)F)c(C(=O)Nc2ccc(Oc3ccnc4cc(OC)c(OC)cc34)cn2)n1 [Compound 31]
17 | ≥ 1000 | COc1cc2nccc(Oc3ccc(NC(=O)c4nn(CC5CCN(C)C5)cc4OCC(F)(F)F)nc3)c2cc1OC (stereo not shown) [Compound 169]
18 | < 500 | CCC(=O)n1cc(OCC(F)(F)F)c(C(=O)Nc2ccc(Oc3ccnc4cc(OC)c(OC)cc34)cn2)n1 [Compound 20]
19 | < 500 | COc1cc2nccc(Oc3ccc(NC(=O)c4nn(CC(C)N)cc4OCC(F)(F)F)nc3)c2cc1OC (stereo not shown) [Compound 63]
